Data taken from the kinase profiling compilation of Christmann-Franck et al. (2016).
“And” between values parts separate entries of the source, which are not always exact repeats. Identical values can stand only once.

Experiments:
Experiment in all cases: radiometric filter-binding kinase assay, Kinaseprofiler
[1] = target: ABL2 (human) (UniProt P42684); details: ATP 45 µM
[2] = target: CAMK2D (human) (UniProt Q13557); details: ATP 10 µM
[3] = target: CDK3 CCNE1 (human) (UniProt Q00526+P24864); details: ATP 200 µM
[4] = target: CDK6 CCND3 (human) (UniProt P30281+Q00534); details: ATP 200 µM
[5] = target: CSF1R (human) (UniProt P07333); details: ATP 200 µM
[6] = tested on: CSNK1D (rat); details: accession and sequence are those of the human protein
[7] = target: DAPK1 (human) (UniProt P53355); details: ATP 70 µM
[8] = target: EPHA8 (human) (UniProt P29322); details: ATP 200 µM
[9] = target: EPHB4 (human) (UniProt P54760); details: ATP 10 µM
[10] = target: FGFR1 (human) (UniProt P11362); details: ATP 200 µM
[11] = target: FYN (human) (UniProt P06241); details: ATP 70 µM
[12] = target: GRK5 (human) (UniProt P34947); details: ATP 15 µM
[13] = target: HCK (human) (UniProt P08631)
[14] = target: IKBKB (human) (UniProt O14920); details: ATP 10 µM
[15] = target: LCK (human) (UniProt P06239); details: compound 1.0 µM; ATP 90 µM
[16] = target: MAPK10 (human) (UniProt P53779); details: ATP 10 µM
[17] = target: MST1R (human) (UniProt Q04912); details: ATP 70 µM
[18] = target: PAK3 (human) (UniProt O75914); details: ATP 120 µM
[19] = target: PAK4 (human) (UniProt O96013); details: ATP 10 µM
[20] = target: PLK2 (human) (UniProt Q9NYY3); details: ATP 120 µM
[21] = target: PRKAA2 PRKAB1 PRKAG1 (human) (UniProt P54619+P54646+Q9Y478); details: ATP 45 µM
[22] = target: PRKD2 (human) (UniProt Q9BZL6); details: ATP 155 µM
[23] = target: STK24 (human) (UniProt Q9Y6E0); details: ATP 15 µM
[24] = target: TNK2 (human) (UniProt Q07912); details: ATP 70 µM
[25] = target: WNK2 (human) (UniProt Q9Y3S1); details: ATP 200 µM
[26] = target: YES1 (human) (UniProt P07947); details: ATP 45 µM

Sequence of HCK (human) (P08631 whole entry, looked up): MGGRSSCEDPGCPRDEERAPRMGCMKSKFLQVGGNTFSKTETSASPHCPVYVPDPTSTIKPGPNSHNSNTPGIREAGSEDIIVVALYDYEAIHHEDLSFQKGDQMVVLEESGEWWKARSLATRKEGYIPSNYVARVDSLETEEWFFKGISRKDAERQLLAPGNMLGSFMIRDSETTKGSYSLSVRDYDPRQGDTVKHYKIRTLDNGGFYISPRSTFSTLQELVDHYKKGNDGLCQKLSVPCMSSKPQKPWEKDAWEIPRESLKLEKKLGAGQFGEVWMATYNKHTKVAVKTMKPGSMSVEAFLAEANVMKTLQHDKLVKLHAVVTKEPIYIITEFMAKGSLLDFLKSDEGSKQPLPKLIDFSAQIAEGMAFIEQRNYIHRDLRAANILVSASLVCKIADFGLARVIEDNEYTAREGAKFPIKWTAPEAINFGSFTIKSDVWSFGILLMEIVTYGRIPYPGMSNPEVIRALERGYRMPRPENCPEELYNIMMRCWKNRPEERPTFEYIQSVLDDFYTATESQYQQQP
Sequence of CAMK2D (human) (Q13557 whole entry, looked up): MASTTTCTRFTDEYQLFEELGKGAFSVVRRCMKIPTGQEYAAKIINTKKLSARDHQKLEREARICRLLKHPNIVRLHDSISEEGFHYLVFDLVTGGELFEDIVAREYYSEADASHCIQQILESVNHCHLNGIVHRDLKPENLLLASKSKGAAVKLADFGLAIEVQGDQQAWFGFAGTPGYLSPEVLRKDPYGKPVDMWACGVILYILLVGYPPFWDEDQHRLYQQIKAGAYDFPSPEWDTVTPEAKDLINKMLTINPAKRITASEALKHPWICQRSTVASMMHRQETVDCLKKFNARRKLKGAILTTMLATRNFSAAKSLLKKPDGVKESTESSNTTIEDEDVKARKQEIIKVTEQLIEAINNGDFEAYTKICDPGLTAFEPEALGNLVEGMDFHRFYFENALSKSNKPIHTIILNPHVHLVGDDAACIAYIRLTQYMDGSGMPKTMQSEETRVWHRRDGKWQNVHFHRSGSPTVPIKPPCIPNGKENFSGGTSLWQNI
Sequence of TNK2 (human) (Q07912 whole entry, looked up): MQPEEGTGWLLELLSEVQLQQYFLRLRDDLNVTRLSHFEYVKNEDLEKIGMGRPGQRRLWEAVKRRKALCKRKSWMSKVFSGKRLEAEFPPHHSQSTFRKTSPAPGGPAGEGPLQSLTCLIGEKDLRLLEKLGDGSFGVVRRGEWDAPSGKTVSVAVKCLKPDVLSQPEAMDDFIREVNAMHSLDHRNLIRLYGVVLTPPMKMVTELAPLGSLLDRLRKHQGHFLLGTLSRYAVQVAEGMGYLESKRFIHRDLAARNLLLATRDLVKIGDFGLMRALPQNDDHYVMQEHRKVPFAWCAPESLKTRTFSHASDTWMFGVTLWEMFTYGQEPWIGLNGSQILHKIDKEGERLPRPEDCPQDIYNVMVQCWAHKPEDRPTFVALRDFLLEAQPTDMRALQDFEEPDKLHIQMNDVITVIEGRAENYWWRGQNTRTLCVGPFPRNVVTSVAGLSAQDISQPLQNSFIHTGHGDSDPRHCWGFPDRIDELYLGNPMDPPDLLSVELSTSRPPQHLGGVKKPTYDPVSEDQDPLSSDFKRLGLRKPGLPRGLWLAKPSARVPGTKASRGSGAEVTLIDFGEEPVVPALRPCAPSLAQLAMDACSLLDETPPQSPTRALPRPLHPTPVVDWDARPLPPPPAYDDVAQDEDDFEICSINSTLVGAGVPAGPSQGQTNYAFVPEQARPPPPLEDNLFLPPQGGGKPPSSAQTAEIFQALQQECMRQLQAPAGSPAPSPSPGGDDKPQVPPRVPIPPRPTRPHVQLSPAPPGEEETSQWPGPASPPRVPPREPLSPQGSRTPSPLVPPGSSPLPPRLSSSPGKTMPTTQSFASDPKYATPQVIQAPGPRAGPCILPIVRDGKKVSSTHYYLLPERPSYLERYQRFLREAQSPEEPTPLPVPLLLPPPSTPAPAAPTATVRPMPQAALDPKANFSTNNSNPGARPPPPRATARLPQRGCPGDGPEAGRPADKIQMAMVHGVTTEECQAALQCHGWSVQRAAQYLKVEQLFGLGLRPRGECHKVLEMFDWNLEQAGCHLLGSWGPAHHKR
Sequence of DAPK1 (human) (P53355 whole entry, looked up): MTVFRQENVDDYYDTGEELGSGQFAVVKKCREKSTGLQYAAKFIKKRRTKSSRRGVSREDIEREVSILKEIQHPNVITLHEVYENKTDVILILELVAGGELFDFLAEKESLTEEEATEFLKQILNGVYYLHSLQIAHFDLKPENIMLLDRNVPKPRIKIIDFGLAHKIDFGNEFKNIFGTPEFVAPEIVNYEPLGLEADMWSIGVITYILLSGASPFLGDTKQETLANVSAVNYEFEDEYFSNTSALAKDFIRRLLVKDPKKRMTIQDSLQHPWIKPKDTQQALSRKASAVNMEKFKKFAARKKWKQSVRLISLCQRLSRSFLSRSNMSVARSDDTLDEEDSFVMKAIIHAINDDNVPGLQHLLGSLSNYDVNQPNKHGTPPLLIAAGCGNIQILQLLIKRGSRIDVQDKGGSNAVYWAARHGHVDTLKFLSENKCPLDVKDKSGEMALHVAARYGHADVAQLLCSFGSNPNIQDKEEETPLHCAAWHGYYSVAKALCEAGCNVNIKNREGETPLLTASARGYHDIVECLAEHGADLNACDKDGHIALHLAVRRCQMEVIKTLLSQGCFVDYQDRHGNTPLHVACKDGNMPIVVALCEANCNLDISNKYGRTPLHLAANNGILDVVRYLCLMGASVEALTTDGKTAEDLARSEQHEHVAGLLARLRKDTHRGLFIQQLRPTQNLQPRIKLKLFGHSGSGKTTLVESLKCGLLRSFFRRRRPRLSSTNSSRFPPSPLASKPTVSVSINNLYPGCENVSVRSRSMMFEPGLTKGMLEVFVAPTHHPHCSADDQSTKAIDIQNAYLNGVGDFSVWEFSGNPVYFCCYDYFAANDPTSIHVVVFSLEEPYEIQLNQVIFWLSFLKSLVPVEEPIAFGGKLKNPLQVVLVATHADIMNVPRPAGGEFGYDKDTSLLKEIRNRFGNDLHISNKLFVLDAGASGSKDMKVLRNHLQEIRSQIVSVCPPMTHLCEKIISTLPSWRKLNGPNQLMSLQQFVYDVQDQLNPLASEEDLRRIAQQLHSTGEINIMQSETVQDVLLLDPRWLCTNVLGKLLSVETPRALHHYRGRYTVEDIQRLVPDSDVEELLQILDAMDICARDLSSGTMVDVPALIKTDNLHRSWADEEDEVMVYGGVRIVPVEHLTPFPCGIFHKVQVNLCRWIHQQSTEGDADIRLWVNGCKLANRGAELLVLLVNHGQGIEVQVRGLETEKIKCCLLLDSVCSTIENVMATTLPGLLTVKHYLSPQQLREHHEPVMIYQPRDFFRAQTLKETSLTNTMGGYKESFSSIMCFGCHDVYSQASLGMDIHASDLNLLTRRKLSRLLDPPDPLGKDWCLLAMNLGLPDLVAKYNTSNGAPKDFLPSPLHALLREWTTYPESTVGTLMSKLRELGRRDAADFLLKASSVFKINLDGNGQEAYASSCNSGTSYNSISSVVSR
Sequence of PAK4 (human) (O96013 whole entry, looked up): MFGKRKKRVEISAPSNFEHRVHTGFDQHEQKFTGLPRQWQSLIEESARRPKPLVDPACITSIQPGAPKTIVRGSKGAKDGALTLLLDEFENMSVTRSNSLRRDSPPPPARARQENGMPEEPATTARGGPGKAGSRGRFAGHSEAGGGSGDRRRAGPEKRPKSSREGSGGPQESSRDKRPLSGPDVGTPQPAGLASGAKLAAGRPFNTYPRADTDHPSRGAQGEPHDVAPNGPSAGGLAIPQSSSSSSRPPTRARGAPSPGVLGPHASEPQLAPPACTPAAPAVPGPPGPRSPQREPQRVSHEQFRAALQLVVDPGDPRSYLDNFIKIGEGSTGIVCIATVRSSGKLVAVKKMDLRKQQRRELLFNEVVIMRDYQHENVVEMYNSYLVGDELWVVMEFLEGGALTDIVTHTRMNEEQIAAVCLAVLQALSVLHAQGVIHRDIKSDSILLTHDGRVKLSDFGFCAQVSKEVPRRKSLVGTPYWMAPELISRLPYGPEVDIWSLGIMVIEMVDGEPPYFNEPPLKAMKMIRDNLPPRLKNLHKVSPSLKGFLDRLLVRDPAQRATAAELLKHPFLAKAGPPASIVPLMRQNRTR
Sequence of IKBKB (human) (O14920 whole entry, looked up): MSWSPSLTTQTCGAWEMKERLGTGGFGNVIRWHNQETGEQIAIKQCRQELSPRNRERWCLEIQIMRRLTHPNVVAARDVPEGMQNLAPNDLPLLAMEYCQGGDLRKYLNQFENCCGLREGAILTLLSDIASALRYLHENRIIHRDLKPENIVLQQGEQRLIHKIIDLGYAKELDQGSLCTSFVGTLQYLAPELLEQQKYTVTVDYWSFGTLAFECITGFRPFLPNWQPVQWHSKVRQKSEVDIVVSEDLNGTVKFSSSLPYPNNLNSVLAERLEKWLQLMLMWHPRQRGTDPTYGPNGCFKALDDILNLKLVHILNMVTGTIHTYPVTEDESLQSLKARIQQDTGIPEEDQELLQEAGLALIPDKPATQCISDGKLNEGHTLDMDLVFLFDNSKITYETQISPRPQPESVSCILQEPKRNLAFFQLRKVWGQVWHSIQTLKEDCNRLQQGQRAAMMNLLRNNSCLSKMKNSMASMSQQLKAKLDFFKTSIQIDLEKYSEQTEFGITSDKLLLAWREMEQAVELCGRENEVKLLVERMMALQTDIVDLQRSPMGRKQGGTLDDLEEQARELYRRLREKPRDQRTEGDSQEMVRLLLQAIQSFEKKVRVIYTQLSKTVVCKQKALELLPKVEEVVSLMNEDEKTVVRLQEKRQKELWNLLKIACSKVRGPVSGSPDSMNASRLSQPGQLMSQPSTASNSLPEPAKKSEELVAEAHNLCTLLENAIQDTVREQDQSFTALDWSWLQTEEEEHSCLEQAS

Compound: O=C1c2ccccc2-c2n[nH]c3cccc1c23
- residual activity ([1]; compound 1.0 µM): 87%
- residual activity ([1]; compound 10.0 µM): 72%
- residual activity ([2]; compound 1.0 µM): 43%
- residual activity ([2]; compound 10.0 µM): 8%
- residual activity ([3]; compound 1.0 µM): 26%
- residual activity ([3]; compound 10.0 µM): 14%
- residual activity ([4]; compound 1.0 µM): 76%
- residual activity ([4]; compound 10.0 µM): 31%
- residual activity ([5]; compound 1.0 µM): 36%
- residual activity ([5]; compound 10.0 µM): 9%
- residual activity ([6]; compound 1.0 µM): 5%
- residual activity ([6]; compound 10.0 µM): 1%
- residual activity ([7]; compound 1.0 µM): 91%
- residual activity ([7]; compound 10.0 µM): 68%
- residual activity ([8]; compound 1.0 µM): 92%
- residual activity ([8]; compound 10.0 µM): 76%
- residual activity ([9]; compound 1.0 µM): 89%
- residual activity ([9]; compound 10.0 µM): 55%
- residual activity ([10]; compound 1.0 µM): 39%
- residual activity ([10]; compound 10.0 µM): 4%
- residual activity ([11]; compound 1.0 µM): 60%
- residual activity ([11]; compound 10.0 µM): 47%
- residual activity ([12]; compound 1.0 µM): 84%
- residual activity ([12]; compound 10.0 µM): 63%
- residual activity ([13]; compound 1.0 µM, ATP 45 µM): 80%
- residual activity ([13]; compound 1.0 µM, ATP 70 µM): 57%
- residual activity ([13]; compound 10.0 µM, ATP 45 µM): 83%
- residual activity ([13]; compound 10.0 µM, ATP 70 µM): 27%
- residual activity ([14]; compound 1.0 µM): 78%
- residual activity ([14]; compound 10.0 µM): 43%
- residual activity [15]: 70% and 89%
- residual activity ([16]; compound 1.0 µM): 5%
- residual activity ([16]; compound 10.0 µM): -6%
- residual activity ([17]; compound 1.0 µM): 78%
- residual activity ([17]; compound 10.0 µM): 51%
- residual activity ([18]; compound 1.0 µM): 85%
- residual activity ([18]; compound 10.0 µM): 96%
- residual activity ([19]; compound 1.0 µM): 88%
- residual activity ([19]; compound 10.0 µM): 45%
- residual activity ([20]; compound 1.0 µM): 85%
- residual activity ([20]; compound 10.0 µM): 61%
- residual activity ([21]; compound 1.0 µM): 69%
- residual activity ([21]; compound 10.0 µM): 28%
- residual activity ([22]; compound 1.0 µM): 92%
- residual activity ([22]; compound 10.0 µM): 36%
- residual activity ([23]; compound 1.0 µM): 57%
- residual activity ([23]; compound 10.0 µM): 21%
- residual activity ([24]; compound 1.0 µM): 50%
- residual activity ([24]; compound 10.0 µM): 12%
- residual activity ([25]; compound 1.0 µM): 79%
- residual activity ([25]; compound 10.0 µM): 77%
- residual activity ([26]; compound 1.0 µM): 98%
- residual activity ([26]; compound 10.0 µM): 51%
